Reference: article PMC8949375, “Design, Green Synthesis and Tailoring of Vitamin E TPGS Augmented Niosomal Nano-Carrier of Pyrazolopyrimidines as Potential Anti-Liver and Breast Cancer Agents with Accentuated Oral Bioavailability” (Pharmaceuticals, 2022)
Where two headings read alike, the source gives them in different places.

Columns and labels:
CaCo-2 cell line = assay: MTT cytotoxicity assay, CaCo-2; assay type: cell-based; conditions: Homo sapiens, read-out: IC50 CaCo-2 Colon Cancer
Source text: (§1) • HepG2 [HEPG2] (ATCC® HB-8065™, Manassas, VA, USA) epithelial hepatocellular carcinoma was derived from the liver tissue of a person (a well-differentiated hepatocellular carcinoma). The human HCC cell line, HEPG-2, was obtained from the American Type Culture Collection and used to evaluate the effects of the following drugs. MCF-7(ATCC® HTB-22™, Manassas, VA, USA) breast cancer cells were derived from mammary gland or breast at a metastatic site. The human MCF-7 cell line, MCF-7, was obtained from the American Type Culture Collection and used to evaluate the effects of the following drugs. • Caco 2 [Caco2] (ATCC® HTB 37™, Manassas, VA, USA) epithelial colorectal adenocarcinoma was derived from the colon at a metastatic site. The human Caco-2 cell line, Caco-2, was obtained from the American Type Culture Collection and used to evaluate the effects of the following drugs. A549 (ATCC® CCL-185™, Manassas, VA, USA), epithelial-like lung carcinoma, was derived from lung tissue at a metastatic site. The human A549 cell line, A549, was obtained from the American Type Culture Collection and used to evaluate the effects of the following drugs.
(§2) HEPG2, A549, MCF-7 and Caco-2 cells were maintained in a monolayer culture in a T-25 flask at 5% CO2 and 37 °C in DMEM (Lonza, Verviers, Belgium) and supplemented with 10% (v/v) FBS (Sigma-Aldrich Co. LLC., Burlington, VT, USA). Penicillin/streptomycin (Gibco®, Grand Island, NY, USA) was applied at 100 units/mL and 100 µg/mL, respectively.
(§3) Growth inhibition was determined by classic MTT assay. In brief, HEPG2, A549, MCF-7 and Caco-2 cells were added to a cell culture MTT assay plate at a concentration of 5 × 10^3 cells/well in 1640 medium and cultured overnight. The different treatments were added on day 1 according to the calculated doses except on the control well and standard, then incubated for 24 h. Measurement was achieved using a microplate reader (Model 550, Bio-Rad, Hercules, CA, USA).

MCF-7 cell line = assay: MTT cytotoxicity assay, MCF-7; assay type: cell-based; conditions: Homo sapiens, MCF7, read-out: IC50 MCF-7 Breast Cancer
Source text: (§4) The human HCC cell line, HEPG-2, was obtained from the American Type Culture Collection and used to evaluate the effects of the following drugs. MCF-7(ATCC® HTB-22TM, Manassas, VA, USA) breast cancer cells were derived from mammary gland or breast at a metastatic site. […] The human Caco-2 cell line, Caco-2, was obtained from the American Type Culture Collection and used to evaluate the effects of the following drugs. […], Manassas, VA, USA), epithelial-like lung carcinoma, was derived from lung tissue at a metastatic site. The human A549 cell line, A549, was obtained from the American Type Culture Collection and used to evaluate the effects of the following drugs. […] LLC., Burlington, VT, USA). Penicillin/streptomycin (Gibco®, Grand Island, NY, USA) was applied at 100 units/mL and 100 μg/mL, respectively. Growth inhibition was determined by classic MTT assay. In brief, HEPG2, A549, MCF-7 and Caco-2 cells were added to a cell culture MTT assay plate at a concentration of 5 × 10^3 cells/well in 1640 medium and cultured overnight. The different treatments were added on day 1 according to the calculated doses except on the control well and standard, then incubated for 24 h.

HepG2 cell line = assay: MTT cytotoxicity assay, HepG2; assay type: cell-based; conditions: Homo sapiens
Source text: as §4

A-549 cell line = assay: MTT cytotoxicity assay, A-549; assay type: cell-based; conditions: Homo sapiens, A549, read-out: IC50 A-549 Lung Carcinoma
Source text: as §1, §2, §3

[1] = system: VEGFR-2 protein expression level in MCF-7 cell line; assay: Human VEGF receptor-2 ELISA in MCF-7; assay type: cell-based; set-up: concentration or dose not given beside the values; conditions: MCF-7, ELISA, compared to control
Procedure: (§5) Total protein was assayed using the method described by Bradford. The Human VEGF receptor-2 ELISA Kit (ab213476), (96 tests) was purchased from (abcam®, Waltham, MA, USA). The kit is a sandwich enzyme immunoassay for the in vitro quantitative measurement of human VEGFR-2 in tissue homogenates, cell lysates and other biological fluids according to the manufacturer’s instructions.

[2] = system: VEGF protein expression level in MCF-7 cell line; assay: VEGF ELISA in MCF-7 cell culture supernatant; assay type: cell-based, human; set-up: concentration or dose not given beside the values; conditions: MCF-7, ELISA, compared to control
Procedure: (§6) Total protein was assayed using the method described by Bradford. The VEGF ELISA Assay Kit (VEGF) and ELISA Kit, (#VGF31-[…]) were purchased from (Eagle Biosciences CO., LTD, Amherst, NH, USA). The kit is a sandwich enzyme immunoassay for the in vitro quantitative determination of VEGF concentrations in cell culture supernates, serum and plasma according to the manufacturer's instructions.

[3] = system: VEGFR-2 protein expression level in HepG2 cell line; assay: Human VEGF receptor-2 ELISA in HepG2; assay type: cell-based; set-up: concentration or dose not given beside the values; conditions: compared to control
Procedure: as §5

[4] = system: VEGF protein expression level in HepG2 cell line; assay: VEGF ELISA in HepG2 cell culture supernatant; assay type: cell-based, human; set-up: concentration or dose not given beside the values; conditions: compared to control
Procedure: as §6

[5] = system: HepG2, MCF-7, A-549 and CaCo-2 cell lines; assay: MTT cytotoxicity assay, summary over all tested cell lines; assay type: cell-based, human; conditions: for IC50: Homo sapiens, range over compounds and cell lines, read-out: IC50 values versus all tested cell lines (collective range); for cytotoxic effect on the four cancer cell lines: in words
Source text: as §1, §2, §3

[6] = system: VEGF gene expression level in HepG2 cell line; assay: Real-time PCR of VEGF gene expression, HepG2; assay type: cell-based, human; conditions: HepG2, 3 days of treatment, compared to control, in words
Procedure: RT-PCR was applied to evaluate the VEGF gene expression level. Briefly, total RNA was extracted, and the extracted total RNA concentration was determined using a NanoDrop 2000 spectrophotometer (Thermo Fisher, Waltham, MA, USA). To determine the relative expression levels, the 2^−ΔΔCT method was used. NCBI/Primer Blast was used to define the primer sequences. The experiments were performed in quadruplicate. The primer sequences of VEGF and β-actin genes are listed below: […]

[7] = read-out: IC50 HepG2 Livercarcinoma

SMILES | IC50 (MCF-7 cell line) | IC50 (HepG2 cell line; [7]) | VEGFR-2 24 h % Inhibition [1] | VEGFR-2 72 h % Inhibition [1] | VEGF 24 h % Inhibition [2] | VEGF 72 h % Inhibition [2] | VEGFR-2 24 h % Inhibition [3] | VEGFR-2 72 h % Inhibition [3] | VEGF 24 h % Inhibition [4] | VEGF 72 h % Inhibition [4] | melting point | cytotoxic effect on the four cancer cell lines [5] | also measured
Cc1ccc(N=Nc2c(N)n[nH]c2N)cc1 [Compound 1, 4-(p-tolyldiazenyl)-1H-pyrazole-3,5-diamine] | 50 µM | 20 µM | 33.3% | 50% | 20% | 50% | 52.6% | 38.5% | 23% | 33.3% |  |  | IC50 (CaCo-2 cell line): 18.2 µM; IC50 (A-549 cell line): 15.1 µM; IC50 [5]: 6 to 50 µM
Cc1ccc(N=Nc2c(N)nn3c(N)c(N=Nc4ccc(S(=O)(=O)N=C(N)N)cc4)c(O)nc23)cc1 [Compound 2a, 4-((2,7-Diamino-5-hydroxy-3-(4-tolyldiazenyl)pyrazolo[1,5-a]pyrimidin-6-yl)diazenyl)-N-(diaminomethylene)benzenesulfonamide] | 20 µM | 6.2 µM | 50% | 50% | 40% | 50% | 47.4% | 38.5% | 38.5% | 33.3% | 268 to 270 °C |  | IC50 (CaCo-2 cell line): 12.5 µM; IC50 (HepG2 cell line; TPGS-coated vs uncoated niosomes vs pure compound, read-out: IC50 Hepg2 Liver Carcinoma): 6.5 µM; IC50 (A-549 cell line): 10 µM; VEGF gene expression level [6]: great inhibition; IC50 [5]: 6 to 50 µM
Cc1ccc(N=Nc2c(N)nn3c(N)c(N=Nc4cccc([N+](=O)[O-])c4)c(O)nc23)cc1 [Compound 2b, 2,7-diamino-6-((3-nitrophenyl)diazenyl)-3-(4-tolyldiazenyl)pyrazolo[1,5-a]pyrimidin-5-ol] |  |  |  |  |  |  |  |  |  |  | 234 to 236 °C | no cytotoxic effects even at high doses | 
Cc1ccc(N=Nc2c(N)nn3c(C)c(N=Nc4ccc(S(=O)(=O)N=C(N)N)cc4)c(C)nc23)cc1 [Compound 3a, 4-((2-Amino-5,7-dimethyl-3-(4-tolyldiazenyl)pyrazolo[1,5-a]pyrimidin-6-yl)diazenyl)-N-(diaminomethylene)benzenesulfonamide] |  |  |  |  |  |  |  |  |  |  | 250 to 252 °C | no cytotoxic effects even at high doses | 
Cc1ccc(N=Nc2c(N)nn3c(C)c(N=Nc4cccc([N+](=O)[O-])c4)c(C)nc23)cc1 [Compound 3b, 5,7-Dimethyl-6-((3-nitrophenyl)diazenyl)-3-(4-tolyldiazenyl)pyrazolo[1,5-a]pyrimidin-2-amine] |  |  |  |  |  |  |  |  |  |  | 256 to 258 °C | no cytotoxic effects even at high doses | 
Cc1ccc(N=Nc2c(N)nn3c(C)c(N=Nc4ccc(S(=O)(=O)N=C(N)N)cc4)c(=O)[nH]c23)cc1 [Compound 4a, 4-((2-Amino-7-methyl-5-oxo-3-(4-tolyldiazenyl)-4,5-dihydropyrazolo[1,5-a]pyrimidin-6-yl)diazenyl)-N-(diaminomethylene)benzenesulfonamide] |  |  |  |  |  |  |  |  |  |  | 272 to 274 °C | no cytotoxic effects even at high doses | 
Cc1ccc(N=Nc2c(N)nn3c(C)c(N=Nc4cccc([N+](=O)[O-])c4)c(=O)[nH]c23)cc1 [Compound 4b, 2-Amino-7-methyl-6-((3-nitrophenyl)diazenyl)-3-(4-tolyldiazenyl)pyrazolo[1,5-a]pyrimidin-5(4H)-one] | 25 µM | 12.5 µM | 50% | 50% | 40% | 50% | 42% | 38.5% | 46% | 41.7% | 228 to 230 °C |  | IC50 (CaCo-2 cell line): 15.4 µM; IC50 (A-549 cell line): 14 µM; VEGF gene expression level [6]: great inhibition; IC50 [5]: 6 to 50 µM
Cc1ccc(N=Nc2c(N)nn3c2NC(=O)C(=NNc2ccc(S(=O)(=O)N=C(N)N)cc2)C3=O)cc1 [Compound 5, 4-(2-(2-Amino-5,7-Dioxo-3-(4-Tolyldiazenyl)-4,5-Dihydropyrazolo[1,5-a]Pyrimidin-6(7H)-Ylidene)Hydrazinyl)-N-(Diaminomethylene)Benzenesulfonamide] |  |  |  |  |  |  |  |  |  |  | 278 to 280 °C | no cytotoxic effects even at high doses | 
COc1ccc(-c2nc3c(N=Nc4ccc(C)cc4)c(N)nn3c(N)c2C#N)cc1 [Compound 6, 2,7-Diamino-5-(4-Methoxyphenyl)-3-(4-Tolyldiazenyl)Pyrazolo[1,5-a]Pyrimidine-6-Carbonitrile] |  |  |  |  |  |  |  |  |  |  | 230 to 232 °C | no cytotoxic effects even at high doses | 
CO[C@H]1C[C@@H]2CC[C@@H](C)[C@@](O)(O2)C(=O)C(=O)N2CCCC[C@H]2C(=O)O[C@H]([C@H](C)C[C@@H]2CC[C@@H](OCCO)[C@H](OC)C2)CC(=O)[C@H](C)/C=C(\C)[C@@H](O)[C@@H](OC)C(=O)[C@H](C)C[C@H](C)/C=C/C=C/C=C/1C [Everolimus, reference compound] | 3 µM |  | 40% | 50% | 50% | 62.5% |  |  |  |  |  |  | 
CNC(=O)c1cc(Oc2ccc(NC(=O)Nc3ccc(Cl)c(C(F)(F)F)c3)c(F)c2)ccn1 [Regorafenib, reference compound] |  | 3 µM |  |  |  |  | 62% | 55.6% | 70.8% | 75.4% |  |  | 
CNC(=O)c1cc(Oc2ccc(NC(=O)Nc3ccc(Cl)c(C(F)(F)F)c3)cc2)ccn1 [Sorafenib, reference compound] |  | 6 µM |  |  |  |  |  |  |  |  |  |  | 
